The source of these data is US6417235B2, “Method and use of α-amino-β-mercapto-ethane derivatives as dicarbonyl scavengers for treatment of conditions resulting from protein, lipid, and DNA damage” (University of Kentucky Research Foundation, priority 2000, dated 2002).

The test system of test [1] is ΦX-174 DNA. As to the kind of experiment: AGE-BSA photosensitized cleavage of ΦX-174 DNA under solar simulated light. Format: biochemical. To be noted: for effect on AGE-BSA photosensitized DNA cleavage: solar simulated light, AGE-BSA as photosensitizer; for photosensitizing activity (DNA nicking): SSL 0.8-16 J/cm^2. On the procedure: Glycated Proteins as Photosensitizers of DNA Damage in Skin Photoaging. D-Penicillamine inhibits genotoxic consequences of AGE-photosensitization. Accumulation of AGEs on dermal elastin and collagen occurs during normal skin aging in humans. The hypothesis was tested that the intra- and extracellular accumulation of the complex yellow-brown AGE-chromophores contributes to skin aging and carcinogenesis induced by chronic exposure to sunlight. As a possible molecular mechanisms for a detrimental synergism of AGE-formation and exposure to sunlight, photosensitized DNA damage by AGEs was assessed in a simple in vitro system. Irradiation of covalently closed circular ΦX-174 DNA with increasing doses of solar simulated light (SSL) in the presence of AGE-BSA was used to detect photosensitized DNA nicking as a measure of DNA photodamage (panel A). […] Addition of several antioxidants modulated the photosensitization effect (panel C).

The test system of test [2] is HaCat keratinocytes. Put plainly: AGE-photosensitization of human skin cells, growth inhibition under solar simulated light.
Method: Human HaCat keratinocytes growing on 35 mm dishes were exposed to solar simulated light (1.2 kJ/m^2 UVB and 23 kJ/m^2 UVA) in the presence or absence of AGE-BSA as a model of a protein with advanced glycation endproducts. Control populations were treated in exactly the same way as described above, but were not exposed to solar simulated light (SSL).
Test [3] concerns glycation of histone H1 by ADP-ribose. As to the kind of experiment: Screening of inhibitors of nonoxidative advanced glycation: AGE-fluorescence on 96 well-microtiter plate. As to conditions: (± SEM, n = 2); for AGE-fluorescence (day 5): complete reaction under air. It is filed as biochemical, calf. On the procedure:
All operations were carried out at 4° C. Chromatin was isolated from fresh calf thymus by extraction with 0.14 M NaCl, 0.05 M Na2S2O5, as described earlier in Wondrak supra. After repeated extraction with 5% HCl)4 and centrifugation (1500 g), histone H1 was precipitated from the supernatant by addition of TCA (20% final concentration v/v). The histone H1 precipitate was colleted by centrifugation (12,000 g) and deionized water. After extensive dialysis (MW cut-off: 12,000-14,000) against water for 48 h, the sample was lyophilized and the protein was stored at 4° C. SDS-PAGE (12%) was used to analyze the purity of the preparation.
Earlier studies have reported that D-penicillamine inhibits collagen crosslinking and AGE fluorescence caused by sugars (McPherson, J. D., Shilton, B. H., and Walton, D. J. 1988. Role of Fructose in Glycation and Cross-Linking of Proteins. Biochemistry 27, 1901-1907) and reaction of D-penicillamine with aldehyde groups of proteins (Deshmukh, K., and Nimm, M. E. 1969. A Defect in the Intramolecular and Intermolecular Cross-linking of Collagen caused by Penicillamine. J. Biol. Chem. 244, 1787-1795). A number of different penicillamines and penicillamine derivatives were tested to determine the inhibition of AGE-fluorescence on histone H1 at physiological pH. The reaction conditions for the glycation of histone H1 by ADP-ribose mimic physiological conditions to the extent possible. Reaction mixtures contain 1.5 mg/ml histone Hl, 1.0 mM ADP-ribose, 50 mM potassium phosphate buffer, pH 7.4, 37° C. D,L-penicillamine; L-penicillamine; D-penicllamine; D-penicillaminedisulfide and N,S- isopropylidine-D-penicillamine were tested in concentrations of 1,5 and 10 mM. The detected reaction parameter representing the accumulation of protein damage is AGE-fluorescence ((λex=[…]), which is suppressed by the presence of a compound with inhibitory activity. Generation of AGE-type fluorescence (λex=355 nm; λem=405 nm) was monitored over time at 37° C; which is in the range of the broad excitation/emission maxima of AGE compounds. To allow high throughput sample processing on 96 well microtiter plates, the reaction volumes are 300 μl. Fluorescence on the 96-well microtiter plates was measured using an automated microtiter fluorescence reader. Fluorescence of the 1 ml samples of the glycation reaction mixtures was measured using a Hitachi F-200 fluorescence spectophotometer, and prior to measurement the protein sample is dialyzed extensively against water (MW cutoff=[…]), lyophilized and reconstituted in reaction buffer. For inhibitor screening the plate is read on a Fluoroskan II plate reader (Titertek, ICN) at the excitation/emission wavelengths set forth above at a bandwidth of 35 nm.
The following screening scheme is used (see Table 1): AGE-fluorescence is determined at the beginning and after five days of incubation. Test compounds that are inherently fluorescent (designated false negatives) were identified by the initial fluorescence measurement (See Table 1, NADH for example). Since these are compounds of uncertain activity, they are diverted directly to the second stage of the screen. Aminoguanidine, a known glycation inhibitory agent, was used as a positive control for suppression of the increase on AGE-fluorescence. After five days incubation and plate reading, fluorescence quenchers (designated false positives) are excluded by measuring the quenching activity of the test compound by addition of AGE modified protein having known fluorescence activity to one microtiter plate well containing test compound in the complete reaction mixture. For this, AGE-BSA is used as the AGE-type fluorescence standard. This AGE-BSA test excludes false positives compounds that function by fluorescence quenching. If fluorescence quenching occurs the test compound is excluded from further screening. […] The protein is visualized by silver staining of the gel. […]

Turning to `OC[C@@H](O)[C@@H](O)[C@H](O)[C@H](O)CO` [Mannitol], in test [1], the “effect on AGE-BSA photosensitized DNA cleavage” value (“effect” below) is on record as “blocked the photosensitized DNA cleavage”.
With “AGE-BSA: Glycosylated Bovine Serum Albumin, BSA incubated with D-glucose for 90 days at 37° C.”, the “photosensitizing activity (DNA nicking)” value in test [1] is “the damage was concentration dependent”. In addition, the “increase in growth inhibition as compared to SSL alone” value in test [2] (10 mg/mL AGE-BSA with SSL) is 4 fold. For the same compound, the growth inhibition in test [2] (10 mg/mL AGE-BSA with SSL (1.2 kJ/m^2 UVB and 23 kJ/m^2 UVA)) is 80%.
With catalase, the “effect” value in test [1] is “not effective”.
In the case of `C[N+](C)(C)[C@@H](Cc1c[nH]c(=S)[nH]1)C(=O)[O-]` [L-Ergothioneine], the “AGE-fluorescence (day 0)” value in test [3] (compound 1 mM) was 1.0 (0.1) relative units; in test [3] (compound 5 mM), 1.2 (0.0) relative units; in test [3] (compound 10 mM), 1.2 (0.1) relative units. For the same compound, the “AGE-fluorescence (day 5)” value in test [3] (compound 1 mM) is reported as 13 (0.0) relative units; in test [3] (compound 5 mM), 9.3 (0.2) relative units; in test [3] (compound 10 mM) it was 7.4 (0.1) relative units.
As to `NC(CCS)C(=O)O` (racemic) [D,L-Homocysteine], the entries for the “AGE-fluorescence (day 0)” value in test [3] (compound 1 mM), in test [3] (compound 5 mM) and in test [3] (compound 10 mM) were 1.3 (0.0) relative units, 1.2 (0.2) relative units and 1.1 (0.1) relative units, respectively. The “AGE-fluorescence (day 5)” value in test [3] (compound 1 mM) is recorded as 16 (1.1) relative units; in test [3] (compound 5 mM), 22 (0.1) relative units; in test [3] (compound 10 mM), 27 (1.7) relative units.
In the case of `[N-]=[N+]=[N-].[Na+]` [NaN3], in test [1], the “effect” value is given as “blocked the photosensitized DNA cleavage”.
As to `CC(C)(S)C(N)C(=O)O` (racemic) [D,L-Penicillamine], the figures for the “AGE-fluorescence (day 0)” value in test [3] (compound 1 mM), in test [3] (compound 5 mM) and in test [3] (compound 10 mM) were 1.1 (0.2) relative units, 1.1 (0.1) relative units and 1.1 (0.1) relative units, respectively. The “AGE-fluorescence (day 5)” value in test [3] (compound 1 mM) is recorded as 13 (0.0) relative units; in test [3] (compound 5 mM) it was 2.7 (0.0) relative units; in test [3] (compound 10 mM), 1.7 (0.0) relative units.
Regarding `NCCS` [Cysteamine], the “AGE-fluorescence (day 0)” value is 1.0 (0.1) relative units in test [3] (compound 1 mM), 1.1 (0.1) relative units in test [3] (compound 5 mM) and 1.2 (0.2) relative units in test [3] (compound 10 mM). The “AGE-fluorescence (day 5)” value in test [3] (compound 1 mM) is 10 (0.6) relative units; in test [3] (compound 5 mM), 9.0 (0.7) relative units; in test [3] (compound 10 mM) it was 6.0 (0.3) relative units.
On to `COC(=O)[C@@H](N)CS` [L-Cys-OMe], for which the “AGE-fluorescence (day 0)” value in test [3] (compound 1 mM) was 1.2 (0.1) relative units; in test [3] (compound 5 mM) it was 1.3 (0.1) relative units; in test [3] (compound 10 mM) it was 1.2 (0.1) relative units. Further, the “AGE-fluorescence (day 5)” value was 15 (0.1) relative units in test [3] (compound 1 mM), 12 (0.8) relative units in test [3] (compound 5 mM) and 9.0 (0.2) relative units in test [3] (compound 10 mM).
Take “Unmodified BSA: unmodified bovine serum albumin”: the “photosensitizing activity (DNA nicking)” value in test [1] is “no such photosensitizing activity”.
`O=C1CC(=O)NC(=S)N1` [2-Thiobarbituric acid]: the “AGE-fluorescence (day 0)” value in test [3] (compound 1 mM) was 1.1 (0.1) relative units; in test [3] (compound 5 mM), 1.2 (0.1) relative units; in test [3] (compound 10 mM), 1.3 (0.1) relative units. The entries for the “AGE-fluorescence (day 5)” value in test [3] (compound 1 mM), in test [3] (compound 5 mM) and in test [3] (compound 10 mM) were 12 (0.4) relative units, 5.3 (0.4) relative units and 2.3 (0.0) relative units, respectively.
For the compound `NC(=O)C1=CN([C@@H]2O[C@H](COP(=O)(O)OP(=O)(O)OC[C@H]3O[C@@H](n4cnc5c(N)ncnc54)[C@H](O)[C@@H]3O)[C@@H](O)[C@H]2O)C=CC1` [NADH], in test [3] (compound 5 mM), the “AGE-fluorescence (day 0)” value is listed as 52 (0.3) relative units and the “AGE-fluorescence (day 5)” value is 31 (0.0) relative units.
On to `N[C@@H](CS)C(=O)O` [L-Cys], for which the results for the “AGE-fluorescence (day 0)” value in test [3] (compound 1 mM), in test [3] (compound 5 mM) and in test [3] (compound 10 mM) were 1.2 (0.1) relative units, 1.1 (0.1) relative units and 1.2 (0.1) relative units, respectively. Besides, the “AGE-fluorescence (day 5)” value is given as 14 (0.3) relative units in test [3] (compound 1 mM), 11 (0.2) relative units in test [3] (compound 5 mM) and 9.0 (0.2) relative units in test [3] (compound 10 mM).
Regarding `CC(=O)N[C@@H](CS)C(=O)O` [NAC], the “AGE-fluorescence (day 0)” value is listed as 1.2 (0.2) relative units in test [3] (compound 1 mM), 1.0 (0.1) relative units in test [3] (compound 5 mM) and 1.1 (0.1) relative units in test [3] (compound 10 mM). In addition, the “AGE-fluorescence (day 5)” value in test [3] (compound 1 mM) is on record as 11 (0.6) relative units; in test [3] (compound 5 mM), 10 (0.4) relative units; in test [3] (compound 10 mM), 9.4 (0.6) relative units.
With L-Cys-Gly, the “AGE-fluorescence (day 0)” value is listed as 1.3 (0.3) relative units in test [3] (compound 1 mM), 1.2 (0.2) relative units in test [3] (compound 5 mM) and 1.2 (0.1) relative units in test [3] (compound 10 mM). In addition, the figures for the “AGE-fluorescence (day 5)” value in test [3] (compound 1 mM), in test [3] (compound 5 mM) and in test [3] (compound 10 mM) were 17 (0.0) relative units, 26 (0.4) relative units and 40 (0.0) relative units, respectively.
Consider `N[C@@H](CCC(=O)N[C@@H](CS)C(=O)NCC(=O)O)C(=O)O` [GSH, glutathione], for which the “AGE-fluorescence (day 0)” value in test [3] (compound 1 mM) is 1.3 (0.0) relative units; in test [3] (compound 5 mM) it was 1.1 (0.3) relative units; in test [3] (compound 10 mM), 1.1 (0.0) relative units. Moreover, the “AGE-fluorescence (day 5)” value in test [3] (compound 1 mM) is reported as 19 (0.3) relative units; in test [3] (compound 5 mM) it was 17 (0.3) relative units; in test [3] (compound 10 mM), 14 (0.5) relative units.
